Consider 1 molecule from PMC11061149, “Protein mimetic 2D FAST rescues alpha synuclein aggregation mediated early and post disease Parkinson’s phenotypes” (Nature Communications, 2024).

Molecules are shown by their SMILES. “And” between values parts separate entries of the source, which are not always exact repeats. Equal entries are not always repeated.

This data set addresses T1, αS aggregation (Homo sapiens, UniProt P37840).
T1 construct: made in house; host or cells: E. coli BL21(DE3)
Nature of the data set: SDS-PAGE gel shift assay of soluble and insoluble αS fractions. Format: biochemical. The settings on record: for Total (αS, SDS-PAGE gel shift), Average: average of 3 trials. From the text: The inhibition of αS aggregation by NS41 was also confirmed by TEM images, which show an abundance (Supplementary Fig. 3a) and low amount (Supplementary Fig. 3b) of αS fibers in the absence and presence of NS41, respectively. We used SDS-PAGE (Sodium dodecyl sulfate polyacrylamide gel electrophoresis) as a complementary assay to validate ThT results and to further characterize the antagonist activity of the monopyridyls against αS aggregation. We used a total of four monopyridyls with varying antagonist activity against αS aggregation for the SDS-PAGE assay. The solutions of αS (±monopyridyls) were centrifuged and the soluble and insoluble fractions were subjected to SDS-PAGE analysis as reported earlier (Fig. 2d, Supplementary Fig. 4a, see details in methods section). The band intensities of the gels in SDS-PAGE assay were quantified using ImageJ software. In the absence of ligands, ~12% of αS was found in the soluble fraction and the rest was found in the insoluble fraction (Fig. 2d, Supplementary Fig. 4a, b). In the presence of NS41 at molar ratios of 1:1 and 2:1 (NS41:αS), 48% and 73% of αS protein were found in the soluble fraction, respectively, and the rest of αS protein was found in the insoluble fraction (Fig. 2d, Supplementary Fig. 4a, b). […] The antagonist activity of the monopyridyls corroborated well from both ThT and the SDS-PAGE assays (Fig. 2a–d, Supplementary Fig. 4a, b). The higher the antagonist activity of monopyridyls against αS aggregation, the lower the ThT intensity and the higher the amount of αS remained in the soluble fraction (Fig. 2a–d, Supplementary Fig. 4a, b). […] It is important to note that NS41 contains a carboxyl (COOH) functional group side chain. […] We have also shown in that work that the foldamer binds to the N-terminus of αS because of its negatively charged COOH functional group interaction with the positively charged lysine residues of αS[24]. […] Additionally, we have also shown that the OPs with the COOH functional group are very effective inhibitors of aggregation of other amyloid proteins that contain lysine amino acid via the formation of salt bridges[30]–[34].
An αS solution (100 µM) was prepared in PBS with or without ligands and shaken ([…], 37 °C) until the fluorescence plateaued, as observed using the ThT aggregation assay, indicative of the aggregation of αS as a control (four days for most experiments unless otherwise mentioned). The solutions were separated into soluble and insoluble fractions by centrifugation at 22,000 × g for 20 min. The fractions were diluted in 2×Laemmli protein sample loading buffer (Containing 2.1% SDS, Bio-rad, Hercules, CA), boiled at 95 °C for 5 min, and ran on a 12% Mini-PROTEAN precast protein gel (Bio-rad, Hercules, CA). The gel was visualized using ChemiDoc MP Imaging System (Bio-rad, Hercules, CA) and band intensity was quantified using Image Lab image acquisition and analysis software (Bio-rad, Hercules, CA). Densitometry values were averaged from three technical replicates and reported with the error bars representing their standard deviations.
A general note: Mobility shift assays separate free from complexed probe on a gel.

Turning to `Cc1ccc(NC(=O)c2ccc(NC(=O)c3ccc([N+](=O)[O-])c(NCCc4c[nH]c5ccccc45)n3)c(NCC3CCCCC3)n2)c(OCC(=O)O)n1` [NS132], the “amount of αS in the insoluble fraction” value (100 µM αS, four days, equimolar) is 14% and 11%. Further, the “Total (αS, SDS-PAGE gel shift), Average” value reads like this: (NS132 0.2 eq.) 1.493; (NS132 1.0 eq.) 1.161. In addition, the “Total (αS, SDS-PAGE gel shift), Trial 1-3” value was 1.48 and 1.6 and 1.4 (NS132 0.2 eq., individual trials, Synuclein alone total ~1); 1.099 and 1.145 and 1.24 (NS132 1.0 eq., individual trials). Moreover, the “αS band intensity, Total, Average” value (sheet S7B) is given as 99.9667. Besides, under “sheet S7B, individual trials”, the “αS band intensity, Total” value was 92.4 and 101.3 and 106.2. The “distribution of αS between soluble and insoluble fraction, in words” value (substoichiometric ratio αS:ligand 1:0.5) is reported as “predominantly detected in the soluble fraction”.
